These results are taken from patent US9067923B2, “Substituted quinoxalines” (Kyowa Hakko Kirin Co., Ltd., priority 2011, dated 2015).

The experiment has as its system production of kynurenine in human gastric cancer cell line KATO-III. Put plainly: Inhibitory activity on the production of kynurenine (IFN-γ-treated KATO-III cells). In kind it is cell-based. The note with it: 10 μmol/L test compound, KATO-III cells treated with IFN-γ, 96 hours. How it is done:
This assay was performed by a modification of the method described in J. Biol. Chem., vol. 263, pp. 2041-2048 ([…]). For culture of the human gastric cancer cell line […], RPMI 1640 (GIBCO, 11875) supplemented with 10 vol % FBS (GIBCO, 10091-148, lot. 665285) was used. One μL of a test substance in a DMSO solution was diluted with 199 μL of the culture medium and placed in wells of a 384-well plate (10 μL/well). Next, IFN-γ (Sigma, I-3265) was added to a fresh culture medium to a concentration of 31.25 ng/mL, and KATO-III cells were suspended at 50,000 cells/mL in the culture medium. Forty μL of the suspension was added to each well (2,000 cells/well) and cultured under 5% CO2 at 37° C. for 96 hours. The final concentration of DMSO was limited to 0.1 vol % or less so that DMSO itself may not affect the kynurenine concentration measured in this assay. After the culture, 10 μL of a 30 w/v % aqueous trichloroacetic acid solution was added to each well, and incubation was performed at 65° C. for 30 minutes. The plate was centrifruged at 2,500×g for 5 minutes and 15 μL of the supernatant in each well was transferred into another 384-well plate. To the transferred supernatant, 15 μL of a 2 w/v % solution of p-dimethylaminobenzaldehyde in acetic acid was added, incubation was performed at 65° C. for 20 minutes and the absorbance was measured at 480 nm.
Sample: the absorbance value of the well to which DMSO solution containing a test substance was added and in which the cells were treated with IFN-γ.
Blank: the absorbance value of the well to which DMSO not containing a test substance was added and in which the cells were treated with IFN-γ.
Control: the absorbance value of the well to which DMSO not containing a test substance was added and in which the cells were not treated with IFN-γ.
The inhibition % of each test compound was calculated by formula A1.
In this assay, the expression of IDO in KATO-III cells is induced by IFN-γ treatment, and kynurenine in the culture medium is quantified. The kynurenine concentration in a culture medium is known to increase in proportion to the enzymatic activity of intracellular IDO (for example, J. Biol. Chem., vol. 263, pp. 2041-2048 (1988)). […] The production of kynurenine is known to be inhibited by IDO inhibitors (for example, J. Clin. Invest., vol. 117, No. 5, pp. 1147-1154 ([…])), and thus it is speculated that compounds (I) also have an inhibitory effect on IDO.
For the compound `CCCS(=O)(=O)Nc1nc2ccccc2nc1OC(C1CCN(c2cccc(C(=O)N(C)C)n2)CC1)C(F)(F)F` (centres unmarked) [Compound 3, N,N-dimethyl-6-(4-(2,2,2-trifluoro-1-(3-(propylsulfonamido)quinoxalin-2-yloxy)ethyl)piperidin-1-yl)picolinamide], the inhibition – broadly, the change of the read-out against control, counted positive when it falls – at 10 µM is at least 80%. With `CCCS(=O)(=O)Nc1nc2ccccc2nc1OC(C1CCN(c2nnnn2C)CC1)C(F)(F)F` (centres unmarked) [Compound 12, N-(3-(2,2,2-trifluoro-1-(1-(1-methyl-1H-tetrazol-5-yl)piperidin-4-yl)ethoxy)quinoxalin-2-yl)propane-1-sulfonamide] the figure was at least 80%; with `CCCS(=O)(=O)Nc1nc2ccccc2nc1OC(C1CCN(c2ccnc(C#N)c2)CC1)C(F)(F)F` (centres unmarked) [Compound 16, N-(3-(1-(1-(2-cyanopyridin-4-yl)piperidin-4-yl)-2,2,2-trifluoroethoxy)quinoxalin-2-yl)propane-1-sulfonamide], at least 80%; with `CCCS(=O)(=O)Nc1nc2ccccc2nc1O[C@H](C1CCN(c2ccc(C(N)=O)nc2)CC1)C(F)(F)F` [Compound 34, (R)-5-(4-(2,2,2-trifluoro-1-(3-(propylsulfonamido)quinoxalin-2-yloxy)ethyl)piperidin-1-yl)picolinamide], at least 80%. `CCCS(=O)(=O)Nc1nc2ccccc2nc1OC(C1CCN(c2cncc(C#N)c2)CC1)C(F)(F)F` (centres unmarked) [Compound 7, N-(3-(1-(1-(5-cyanopyridin-3-yl)piperidin-4-yl)-2,2,2-trifluoroethoxy)quinoxalin-2-yl)propane-1-sulfonamide] yielded an inhibition at 10 µM of at least 80%. With `CCCS(=O)(=O)Nc1nc2ccccc2nc1OC(C1CCN(c2ccc(C#N)cn2)CC1)C(F)(F)F` (centres unmarked) [Compound 15, N-(3-(1-(1-(5-cyanopyridin-2-yl)piperidin-4-yl)-2,2,2-trifluoroethoxy)quinoxalin-2-yl)propane-1-sulfonamide] the figure was at least 80%; with `CCCS(=O)(=O)Nc1nc2ccccc2nc1OC(C1CCN(c2cncnc2)CC1)C(F)(F)F` (centres unmarked) [Compound 14, N-(3-(2,2,2-trifluoro-1-(1-(pyrimidin-5-yl)piperidin-4-yl)ethoxy)quinoxalin-2-yl)propane-1-sulfonamide], at least 80%. With `CCCS(=O)(=O)Nc1nc2ccccc2nc1OC(C1CCN(c2cc(C(=O)N(C)C)ccn2)CC1)C(F)(F)F` (centres unmarked) [Compound 1, N,N-dimethyl-2-(4-(2,2,2-trifluoro-1-(3-(propylsulfonamido)quinoxalin-2-yloxy)ethyl)piperidin-1-yl)isonicotinamide] the figure was at least 80%.

`CCCS(=O)(=O)Nc1nc2ccccc2nc1OC(C1CCN(c2cccnc2)CC1)C(F)(F)F` (centres unmarked) [Compound 21, N-(3-(2,2,2-trifluoro-1-(1-(pyridin-3-yl)piperidin-4-yl)ethoxy)quinoxalin-2-yl)propane-1-sulfonamide] had an inhibition at 10 µM of at least 80%.

Compound `CCCS(=O)(=O)Nc1nc2ccccc2nc1OC(C1CCN(c2ccc(C(N)=O)cn2)CC1)C(F)(F)F` (centres unmarked) [Compound 19, 6-(4-(2,2,2-trifluoro-1-(3-(propylsulfonamido)quinoxalin-2-yloxy)ethyl)piperidin-1-yl)nicotinamide] yielded an inhibition at 10 µM of at least 80%.

In turn, `CCCS(=O)(=O)Nc1nc2ccccc2nc1OC(C1CCN(c2ncccc2C#N)CC1)C(F)(F)F` (centres unmarked) [Compound 9, N-(3-(1-(1-(3-cyanopyridin-2-yl)piperidin-4-yl)-2,2,2-trifluoroethoxy)quinoxalin-2-yl)propane-1-sulfonamide] yielded an inhibition at 10 µM of at least 80%. With `CCCS(=O)(=O)Nc1nc2ccccc2nc1OC(C1CCN(c2ncccc2C(N)=O)CC1)C(F)(F)F` (centres unmarked) [Compound 10, 2-(4-(2,2,2-trifluoro-1-(3-(propylsulfonamido)quinoxalin-2-yloxy)ethyl)piperidin-1-yl)nicotinamide] the figure was at least 80%.

Compound `CCCS(=O)(=O)Nc1nc2ccccc2nc1OC(C1CCN(c2nccs2)CC1)C(F)(F)F` (centres unmarked) [Compound 18, N-(3-(2,2,2-trifluoro-1-(1-(thiazol-2-yl)piperidin-4-yl)ethoxy)quinoxalin-2-yl)propane-1-sulfonamide] displayed an inhibition at 10 µM of at least 80%.

Compound `CCCS(=O)(=O)Nc1nc2ccccc2nc1O[C@H](c1cnc(C(C)=O)s1)C(F)(F)F` [Compound 32, (S)-N-(3-(1-(2-acetylthiazol-5-yl)-2,2,2-trifluoroethoxy)quinoxalin-2-yl)propane-1-sulfonamide] had an inhibition at 10 µM of at least 80%. To `CCCS(=O)(=O)Nc1nc2ccccc2nc1OC(C1CCN(c2cc(C#N)ccn2)CC1)C(F)(F)F` (centres unmarked) [Compound 6, N-(3-(1-(1-(4-cyanopyridin-2-yl)piperidin-4-yl)-2,2,2-trifluoroethoxy)quinoxalin-2-yl)propane-1-sulfonamide] belongs at least 80%; to `CCCS(=O)(=O)Nc1nc2ccccc2nc1OC(C1CCN(c2ncccc2C(=O)N(C)C)CC1)C(F)(F)F` (centres unmarked) [Compound 2, N,N-dimethyl-2-(4-(2,2,2-trifluoro-1-(3-(propylsulfonamido)quinoxalin-2-yloxy)ethyl)piperidin-1-yl)nicotinamide], at least 80%; to `CCCS(=O)(=O)Nc1nc2ccccc2nc1OC(C1CCN(c2cnccn2)CC1)C(F)(F)F` (centres unmarked) [Compound 13, N-(3-(2,2,2-trifluoro-1-(1-(pyrazin-2-yl)piperidin-4-yl)ethoxy)quinoxalin-2-yl)propane-1-sulfonamide], at least 80%. To `COCCS(=O)(=O)Nc1nc2ccccc2nc1OC(c1ccc(-c2noc(C3CC3)n2)nc1)C(F)(F)F` (centres unmarked) [Compound 23, N-(3-(1-(6-(5-cyclopropyl-1,2,4-oxadiazol-3-yl)pyridin-3-yl)-2,2,2-trifluoroethoxy)quinoxalin-2-yl)-2-methoxyethanesulfonamide] belongs at least 80%; to `CCCS(=O)(=O)Nc1nc2ccccc2nc1OC(C1CCN(c2ccc(C(N)=O)nc2)CC1)C(F)(F)F` (centres unmarked) [Compound 5, 5-(4-(2,2,2-trifluoro-1-(3-(propylsulfonamido)quinoxalin-2-yloxy)ethyl)piperidin-1-yl)picolinamide], at least 80%. With `CCCS(=O)(=O)Nc1nc2ccccc2nc1OC(C1CCN(c2ccccn2)CC1)C(F)(F)F` (centres unmarked) [Compound 20, N-(3-(2,2,2-trifluoro-1-(1-(pyridin-2-yl)piperidin-4-yl)ethoxy)quinoxalin-2-yl)propane-1-sulfonamide] the figure was at least 80%; with `CCCS(=O)(=O)Nc1nc2ccccc2nc1OC(C1CCN(c2ccc(C(=O)N(C)C)cn2)CC1)C(F)(F)F` (centres unmarked) [Compound 8, N,N-dimethyl-6-(4-(2,2,2-trifluoro-1-(3-(propylsulfonamido)quinoxalin-2-yloxy)ethyl)piperidin-1-yl)nicotinamide], at least 80%; with `CCCS(=O)(=O)Nc1nc2ccccc2nc1OC(C1CCN(c2ccncc2C#N)CC1)C(F)(F)F` (centres unmarked) [Compound 17, N-(3-(1-(1-(3-cyanopyridin-4-yl)piperidin-4-yl)-2,2,2-trifluoroethoxy)quinoxalin-2-yl)propane-1-sulfonamide], at least 80%. The compound `CCCS(=O)(=O)Nc1nc2ccccc2nc1OC(c1ccc(-c2noc(COC)n2)nc1)C(F)(F)F` (centres unmarked) [Compound 26, N-(3-(2,2,2-trifluoro-1-(6-(5-(methoxymethyl)-1,2,4-oxadiazol-3-yl)pyridin-3-yl)ethoxy)quinoxalin-2-yl)propane-1-sulfonamide] registered an inhibition at 10 µM of at least 80%.
